This note sets out measurements from patent publication US6699892B2, “Pharmaceutically acceptable salt of amlodipine and method of preparing the same” (Yung Shin Pharmaceutical Industrial Co., Ltd., priority 2002, dated 2004).

For series [1] the following is noted: aqueous solution.
The format of series [2] is physicochemical. The settings on record: 3 weeks. As for the experimental part: The stability of amlodipine nicotinate and amlodipine besylate was tested at 45° C. and 75° C. for 3 weeks.
Series [3] is described as follows: Solubility in water at room temperature (saturated aqueous solution). Type of series: physicochemical. The settings on record: room temperature of about 25° C. The protocol: At the ambient temperature (room temperature of about 25° C.), a saturated aqueous solution of amlodipine nicotinate contains about 6.0 mg of the chemical per mL of water. In comparison, a saturated aqueous solution of amlodipine besylate contains about 2.0 mg of the chemical per mL of water.

The mark [4] stands for this setting: listed as amlodipine nicotinate.

Converted amounts (≈) assume the structure as drawn. Like-named read-outs stand apart in the source and are kept apart here.

For the molecule `CCOC(=O)C1=C(COCCN)NC(C)=C(C(=O)OC)C1c1ccccc1Cl` (stereo not shown) [Amlodipine Nicotinate, amlodipine nicotinate], the “pH Value” in series [1] and in series [1] (setting [4]) was 5.34 each time. The “Stability Test (% of Sample Purity) (3-week) 45° C.” value in series [2] turned out to be 99.7%. Also, the “Stability Test (% of Sample Purity) (3-week) 75° C.” value in series [2] came out at 99.2%. Moreover, the “Solubility in Water at Room Temperature” value was 6.0 mg/mL (≈ 14.7 mM) in series [3] and “about 6.0 mg/ml” in series [3] (setting [4]).
Regarding `CCOC(=O)C1=C(COCCN)NC(C)=C(C(=O)OC)C1c1ccccc1Cl` (stereo not shown) [Amlodipine Besylate, amlodipine besylate, reference compound], in series [1], the “pH Value” was 6.09. Also, in series [2], the “Stability Test (% of Sample Purity) (3-week) 45° C.” value came out at 99.6% and the “Stability Test (% of Sample Purity) (3-week) 75° C.” value came to 97.8%. Further, in series [3], the “Solubility in Water at Room Temperature” value is recorded as “about 2.0 mg/ml”.
